Source: patent US5460697A, “Method of pulping wood chips with a fungi using sulfite salt-treated wood chips” (priority 1994, dated 1995)
Like-named read-outs stand apart in the source and are kept apart here.

How the values were obtained:
[1] = system: indigenous microorganisms; assay: Effect of sulfite salts on indigenous microorganisms of unsterilized wood chips (plating); format: cell-based, indigenous microorganisms of unsterilized aspen wood chips; conditions: for first test: whether the salt inhibits growth of indigenous microorganisms: pass / not pass; for inhibition at 600 µg/mL / inhibition at 1200 µg/mL: read-out: Inhibition Relative to control; for inhibition of growth of indigenous microorganisms (in words): unsterilized wood chips, overall statement
Description: Aspen wood chips (50 g O.D. basis) were soaked in 500 ml of water containing either 0 mg, 781 mg or 1562 mg sodium bisulfite for about 1 hour at room temperature. After soaking, water was drained from the chips.
During the 1 hour soaking the chips soaked up about 31 ml of water. Therefore, the final moisture content of wood was about 61% (wet weight basis) and the final concentration of each chemical on water basis was about 0 μg/ml, 600 μg/ml and 1200 μg/ml.
Three chips were pulled randomly from each flask and plated on potato dextrose agar and tryptic soy agar plates. These plates were incubated at 27° C. for 24 or 27 h and the contaminants were visually observed.
A panel of other sulfur-containing chemicals were analyzed for their ability to inhibit the growth of indigenous microorganisms on unsterilized wood chips in the manner described above. Table 2 describes the various concentrations of these chemicals and the percent inhibition relative to control plates observed.

[2] = system: indigenous microorganisms; conditions: Lamar et al. 1990; cited from earlier work

Row | Structure (SMILES) | first test: whether the salt inhibits growth of indigenous microorganisms [1] | Inhibition Relative to control ([1]; 600 μg/ml) [%] | Inhibition Relative to control ([1]; 1200 μg/ml) [%] | further results
1 | O=S([O-])S(=O)[O-].[Na+].[Na+] [Sodium Hydrosulfite] | passed the first test |  |  | inhibition at 600 µg/mL [1]: 70%; inhibition at 1200 µg/mL [1]: 100%; inhibition of growth of indigenous microorganisms (in words) [1]: successfully inhibited the growth of microorganisms
2 | O=S(=O)([O-])[O-].[Na+].[Na+] [Sodium Sulfate] | did not pass the test | 0 | 0 | 
3 | O=S([O-])[O-].[Na+].[Na+] [Sodium Sulfite] | did not pass the test | 0 | 0 | 
4 | O=S(=O)(O)SSS(=O)(=O)O [Sodium Tetrathionate] |  |  |  | inhibition at 600 µg/mL [1]: 0%; inhibition at 1200 µg/mL [1]: 0%
5 | O=S([O-])([O-])=S.[Na+].[Na+] [Sodium Thiosulfate] |  | 0 | 0 | 
6 | O=S(O)S(=O)(=O)O [Sodium meta-Bisulfite] | passed the first test |  |  | inhibition at 600 µg/mL ([1]; 600 μg/ml): 100%; inhibition at 1200 µg/mL ([1]; 1200 μg/ml): 100%; inhibition of growth of indigenous microorganisms (in words) [1]: successfully inhibited the growth of microorganisms
7 | CBr [methyl bromide] |  |  |  | inhibition of indigenous microorganisms (in words) [2]: inhibit a number of indigenous microorganisms
8 | O=S([O-])O.[K+] [potassium bisulfite] | passed the first test |  |  | 
